Data: US11655235B2, “Pyrrolidine and piperidine compounds” (YUHAN CORPORATION, priority 2019, dated 2023)

Legend:
Assay type in all cases: biochemical
Recombinant human FAP = target: T1, Recombinant human FAP (Homo sapiens, UniProt Q12884); assay: FAP inhibition, fluorogenic substrate Z-Gly-Pro-AMC; conditions: 25° C., Z-Gly-Pro-AMC substrate
T1 construct: purchased R&D systems
T1 sequence (Q12884 1-760): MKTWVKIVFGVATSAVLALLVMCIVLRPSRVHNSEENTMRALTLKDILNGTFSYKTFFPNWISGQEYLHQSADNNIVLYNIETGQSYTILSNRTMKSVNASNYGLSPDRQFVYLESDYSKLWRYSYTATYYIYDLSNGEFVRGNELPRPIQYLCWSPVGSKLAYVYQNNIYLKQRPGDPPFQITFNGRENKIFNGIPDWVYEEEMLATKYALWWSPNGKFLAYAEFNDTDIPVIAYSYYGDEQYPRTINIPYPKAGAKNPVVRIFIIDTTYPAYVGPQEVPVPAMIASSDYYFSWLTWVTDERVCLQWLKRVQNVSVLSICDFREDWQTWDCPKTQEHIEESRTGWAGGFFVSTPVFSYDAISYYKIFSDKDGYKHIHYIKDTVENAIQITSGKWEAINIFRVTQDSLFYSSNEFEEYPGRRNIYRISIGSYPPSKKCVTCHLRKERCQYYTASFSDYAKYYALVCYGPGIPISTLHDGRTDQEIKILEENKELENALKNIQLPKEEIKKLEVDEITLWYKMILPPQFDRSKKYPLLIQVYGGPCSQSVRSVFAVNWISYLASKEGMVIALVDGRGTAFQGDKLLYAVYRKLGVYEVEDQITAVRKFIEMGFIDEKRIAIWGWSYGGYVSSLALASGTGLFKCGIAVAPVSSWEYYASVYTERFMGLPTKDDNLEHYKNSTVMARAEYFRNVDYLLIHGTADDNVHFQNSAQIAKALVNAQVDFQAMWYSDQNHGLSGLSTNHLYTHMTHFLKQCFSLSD
Method in brief: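 Eight-point compound dilutions (≤0.1% DMSO) were incubated at 25° C with 10 ng recombinant human FAP in Tris pH 7.5/1 M NaCl/BSA buffer and Z-Gly-Pro-AMC. Inhibition was taken as % drop in fluorescence rate (380/460 nm) against uninhibited control; IC50 came from a four-parameter logistic fit.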

recombinant human DPP7 = target: T2, recombinant human DPP7 (Homo sapiens, UniProt Q9UHL4); assay: DPP7 inhibition, fluorogenic substrate Lys-Pro-AMC
T2 construct: purchased R&D Systems
Method in brief: (§1)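 Inhibitors are titrated in an 8-point series into the enzyme's assay buffer (DMSO no more than 0.5%). Substrate cleavage at 25 °C is followed by fluorescence, excitation 380 nm and emission 460 nm. IC50 values come from a four-variable logistic model.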

recombinant human DPP8 = target: T3, recombinant human DPP8 (Homo sapiens, UniProt Q6V1X1); assay: DPP8 inhibition, fluorogenic substrate Z-Ala-Pro-AMC; conditions: 25° C., Z-Ala-Pro-AMC substrate
T3 construct: purchased PBS Bioscience
Method in brief: as §1

recombinant human DPP9 = target: T4, recombinant human DPP9 (Homo sapiens, UniProt Q86TI2); assay: DPP9 inhibition, fluorogenic substrate H-Gly-Pro-AMC; conditions: 25° C., H-Gly-Pro-AMC substrate
T4 construct: purchased R&D Systems
Method in brief: as §1

recombinant human PREP = target: T5, recombinant human PREP (Homo sapiens, UniProt P48147); assay: PREP inhibition, fluorogenic substrate Z-Gly-Pro-AMC; conditions: Inhibitory Activity (IC50, nM) PREP, 25° C., Z-Gly-Pro-AMC substrate
T5 construct: purchased R&D System
T5 sequence (P48147 1-710): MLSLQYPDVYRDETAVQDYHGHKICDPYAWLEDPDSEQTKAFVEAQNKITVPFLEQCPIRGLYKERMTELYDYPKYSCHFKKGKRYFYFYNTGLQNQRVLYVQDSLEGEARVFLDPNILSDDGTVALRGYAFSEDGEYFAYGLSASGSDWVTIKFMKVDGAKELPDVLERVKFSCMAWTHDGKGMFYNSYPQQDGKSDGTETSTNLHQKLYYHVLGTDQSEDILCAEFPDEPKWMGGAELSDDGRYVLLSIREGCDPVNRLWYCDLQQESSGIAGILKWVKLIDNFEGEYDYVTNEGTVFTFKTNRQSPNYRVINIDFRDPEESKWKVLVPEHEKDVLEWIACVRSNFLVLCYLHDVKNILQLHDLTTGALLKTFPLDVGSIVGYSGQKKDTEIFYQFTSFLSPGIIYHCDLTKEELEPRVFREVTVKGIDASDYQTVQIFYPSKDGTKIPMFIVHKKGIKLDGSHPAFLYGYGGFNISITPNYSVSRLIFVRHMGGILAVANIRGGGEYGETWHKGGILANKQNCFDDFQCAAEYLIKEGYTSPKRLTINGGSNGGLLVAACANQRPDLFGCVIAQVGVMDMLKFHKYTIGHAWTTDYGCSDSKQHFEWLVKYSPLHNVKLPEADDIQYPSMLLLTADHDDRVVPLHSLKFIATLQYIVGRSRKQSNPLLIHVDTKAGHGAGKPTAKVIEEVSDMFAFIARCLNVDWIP
Method in brief: as §1

DPP4 = DPP4 (Homo sapiens, UniProt P27487); assay: DPP4 inhibition, fluorogenic substrate H-Gly-Pro-AMC; design: purchased R&D Systems; conditions: for IC50: 25° C., H-Gly-Pro-AMC substrate
Chain of DPP4 (P27487 whole entry): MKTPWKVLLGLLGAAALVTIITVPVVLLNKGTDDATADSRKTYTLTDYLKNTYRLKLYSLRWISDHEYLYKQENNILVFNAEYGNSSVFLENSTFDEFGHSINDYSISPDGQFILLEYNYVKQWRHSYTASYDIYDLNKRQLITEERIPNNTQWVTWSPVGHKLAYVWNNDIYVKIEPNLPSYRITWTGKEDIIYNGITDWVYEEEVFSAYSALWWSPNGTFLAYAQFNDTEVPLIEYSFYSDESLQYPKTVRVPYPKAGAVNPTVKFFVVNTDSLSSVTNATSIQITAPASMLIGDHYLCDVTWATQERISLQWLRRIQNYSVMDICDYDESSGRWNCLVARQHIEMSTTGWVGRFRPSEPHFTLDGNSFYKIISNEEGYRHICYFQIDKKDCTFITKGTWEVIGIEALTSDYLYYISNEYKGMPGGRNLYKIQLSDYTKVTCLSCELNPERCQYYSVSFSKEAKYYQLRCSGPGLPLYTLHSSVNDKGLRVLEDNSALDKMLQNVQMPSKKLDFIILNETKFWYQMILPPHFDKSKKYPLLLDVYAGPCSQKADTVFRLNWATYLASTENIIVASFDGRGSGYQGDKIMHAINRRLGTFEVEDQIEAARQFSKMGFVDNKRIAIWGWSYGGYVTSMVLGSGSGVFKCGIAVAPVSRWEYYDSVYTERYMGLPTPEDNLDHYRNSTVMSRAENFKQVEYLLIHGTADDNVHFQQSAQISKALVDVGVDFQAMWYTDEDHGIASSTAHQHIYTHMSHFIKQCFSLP

T4 sequence (Q86TI2 whole entry): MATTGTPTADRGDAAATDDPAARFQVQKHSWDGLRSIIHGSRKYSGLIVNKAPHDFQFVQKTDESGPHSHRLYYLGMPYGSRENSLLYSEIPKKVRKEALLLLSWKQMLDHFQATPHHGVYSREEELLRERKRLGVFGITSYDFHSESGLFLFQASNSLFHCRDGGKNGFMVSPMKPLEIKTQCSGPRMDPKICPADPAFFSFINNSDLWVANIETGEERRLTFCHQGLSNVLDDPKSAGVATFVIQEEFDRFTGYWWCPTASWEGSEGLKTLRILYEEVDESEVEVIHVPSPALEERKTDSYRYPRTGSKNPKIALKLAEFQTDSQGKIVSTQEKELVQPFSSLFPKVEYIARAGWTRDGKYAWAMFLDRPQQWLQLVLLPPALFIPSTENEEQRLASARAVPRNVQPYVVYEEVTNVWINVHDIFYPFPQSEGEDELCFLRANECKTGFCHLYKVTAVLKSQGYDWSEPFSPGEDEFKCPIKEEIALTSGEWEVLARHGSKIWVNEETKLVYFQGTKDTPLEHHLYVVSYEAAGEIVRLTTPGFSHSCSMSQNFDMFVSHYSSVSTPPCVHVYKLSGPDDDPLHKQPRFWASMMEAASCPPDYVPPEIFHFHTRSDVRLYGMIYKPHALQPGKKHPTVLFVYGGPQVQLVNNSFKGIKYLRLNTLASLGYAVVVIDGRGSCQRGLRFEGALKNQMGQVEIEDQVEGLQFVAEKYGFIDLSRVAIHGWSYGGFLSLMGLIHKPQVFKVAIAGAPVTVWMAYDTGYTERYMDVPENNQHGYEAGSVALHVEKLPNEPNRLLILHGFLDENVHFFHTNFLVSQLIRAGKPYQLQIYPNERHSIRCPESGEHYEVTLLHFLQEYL
T3 sequence (Q6V1X1 whole entry): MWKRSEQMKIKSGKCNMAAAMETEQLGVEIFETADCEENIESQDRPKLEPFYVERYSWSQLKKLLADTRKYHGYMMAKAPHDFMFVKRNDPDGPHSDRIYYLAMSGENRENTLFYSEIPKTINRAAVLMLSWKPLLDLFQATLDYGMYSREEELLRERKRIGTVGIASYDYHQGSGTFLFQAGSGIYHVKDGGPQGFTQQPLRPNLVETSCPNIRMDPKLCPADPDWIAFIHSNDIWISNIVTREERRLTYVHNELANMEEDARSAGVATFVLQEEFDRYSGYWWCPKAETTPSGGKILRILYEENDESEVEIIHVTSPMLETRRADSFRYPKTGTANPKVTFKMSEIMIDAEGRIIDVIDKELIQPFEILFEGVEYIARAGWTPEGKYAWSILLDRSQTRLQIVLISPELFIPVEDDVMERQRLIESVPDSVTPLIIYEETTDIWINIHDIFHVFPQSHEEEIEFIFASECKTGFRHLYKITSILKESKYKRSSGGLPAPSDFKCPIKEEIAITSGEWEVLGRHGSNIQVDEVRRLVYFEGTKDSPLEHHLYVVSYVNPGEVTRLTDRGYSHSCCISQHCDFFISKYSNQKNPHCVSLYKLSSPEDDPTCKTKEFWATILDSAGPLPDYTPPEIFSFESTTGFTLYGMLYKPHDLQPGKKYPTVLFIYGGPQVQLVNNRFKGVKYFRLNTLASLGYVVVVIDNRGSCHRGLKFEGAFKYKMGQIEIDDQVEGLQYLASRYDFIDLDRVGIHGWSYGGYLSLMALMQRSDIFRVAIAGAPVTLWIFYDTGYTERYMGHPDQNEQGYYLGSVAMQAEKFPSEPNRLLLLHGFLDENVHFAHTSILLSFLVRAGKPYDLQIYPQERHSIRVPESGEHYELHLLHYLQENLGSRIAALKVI

SMILES	IC50 (Recombinant human FAP) [µM]	IC50 (recombinant human DPP7) [µM]	IC50 (recombinant human DPP8) [µM]	IC50 (recombinant human DPP9) [µM]	IC50 (recombinant human PREP) [nM]	IC50 (DPP4) [µM]	hDPP4 inhibition % at 1 μM (DPP4; at 1 μM)	inhibition at 1 µM (DPP4; read-out: hDPP4 inhibition % at 1 μM) [%]
N#C[C@@H]1CCCN1C(=O)CN1CC[C@H](Oc2ncnc3sccc23)C1 [Example 68, (S)-1-(2-((S)-3-(thieno[2,3-d]pyrimidin-4-yloxy)pyrrolidin-1-yl)acetyl)pyrrolidine-2-carbonitrile]	0.00796	3.73	> 100	> 100	> 100000	> 1		
N#C[C@@H]1CCCN1C(=O)CN1CC[C@H](Oc2cccc3[nH]c(=O)ccc23)C1 [Example 75, (S)-1-(2-((S)-3-((2-oxo-1,2-dihydroquinolin-5-yl)oxy)pyrrolidin-1-yl)acetyl)pyrrolidine-2-carbonitrile]	0.00984	0.814	93.2	> 100	5250	> 1		
COc1ccc2c(O[C@H]3CCN(CC(=O)N4CCC[C@H]4C#N)C3)ccnc2c1 [Example 100, (S)-1-(2-((S)-3-((7-methoxyquinolin-4-yl)oxy)pyrrolidin-1-yl)acetyl)pyrrolidine-2-carbonitrile]	0.0135	1.15	73.8	> 100	2490	> 1		
COc1cc2nccc(O[C@H]3CCN(CC(=O)N4CCC[C@H]4C#N)C3)c2cc1OC [Example 101, (S)-1-(2-((S)-3-((6,7-dimethoxyquinolin-4-yl)oxy)pyrrolidin-1-yl)acetyl)pyrrolidine-2-carbonitrile]	0.00057	0.626	> 100	> 100	3020	> 1		
N#C[C@@H]1CC(F)(F)CN1C(=O)CN1CC[C@H](Oc2cccc3cnccc23)C1 [Example 106, (S)-4,4-difluoro-1-(2-((S)-3-(isoquinolin-5-yloxy)pyrrolidin-1-yl)acetyl)pyrrolidine-2-carbonitrile]	0.00188	0.0416	8.28	10.3	4310	> 1		
N#C[C@@H]1CC(F)(F)CN1C(=O)CN1CC[C@H](Oc2ccnc3cc(Cl)ccc23)C1 [Example 107, (S)-1-(2-((S)-3-((7-chloroquinolin-4-yl)oxy)pyrrolidin-1-yl)acetyl)-4,4-difluoropyrrolidine-2-carbonitrile]	0.00367	0.0187	9.89	13.5	6500	> 1		
N#C[C@@H]1CC(F)(F)CN1C(=O)CN1CC[C@H](Oc2cccc3[nH]c(=O)ccc23)C1 [Example 108, (S)-4,4-difluoro-1-(2-((S)-3-((2-oxo-1,2-dihydroquinolin-5-yl)oxy)pyrrolidin-1-yl)acetyl)pyrrolidine-2-carbonitrile]	0.00215	0.0076	6.68	6.3	3150	> 1		
N#C[C@@H]1CC(F)(F)CN1C(=O)CN1CC[C@H](Oc2ccc(Cl)c3cccnc23)C1 [Example 109, (S)-1-(2-((S)-3-((5-chloroquinolin-8-yl)oxy)pyrrolidin-1-yl)acetyl)-4,4-difluoropyrrolidine-2-carbonitrile]	0.0018	0.0383	2.17	4.43	4140	> 1		
N#C[C@@H]1CCCN1C(=O)CN1CCC(Nc2ccnc3ccccc23)CC1 [Example 111, (S)-1-(2-(4-(quinolin-4-ylamino)piperidin-1-yl)acetyl)pyrrolidine-2-carbonitrile]	0.00828	0.503	31.9	21.1	4170		No inhibition**	
N#C[C@@H]1C[C@H](F)CN1C(=O)CN1CCC(Nc2cccc3ncccc23)CC1 [Example 113, (2S,4S)-4-fluoro-1-(2-(4-(quinolin-5-ylamino)piperidin-1-yl)acetyl)pyrrolidine-2-carbonitrile]	0.00165	0.342	2.41	3.97	2930			20

Results, then the compound that gave them:

IC50 (Recombinant human FAP) [µM]	IC50 (recombinant human DPP7) [µM]	IC50 (recombinant human DPP8) [µM]	IC50 (recombinant human DPP9) [µM]	IC50 (recombinant human PREP) [nM]	IC50 (DPP4) [µM]	hDPP4 inhibition % at 1 μM (DPP4; at 1 μM)	inhibition at 1 µM (DPP4; read-out: hDPP4 inhibition % at 1 μM) [%]	SMILES
0.019	3.56	> 100	15.7	84000	> 1			N#C[C@@H]1CCCN1C(=O)CN1CC[C@H](Oc2cccc3cccnc23)C1 [Example 64, (S)-1-(2-((S)-3-(quinolin-8-yloxy)pyrrolidin-1-yl)acetyl)pyrrolidine-2-carbonitrile]
0.00677	3.4	> 100	70.6	85700	> 1			N#C[C@@H]1CCCN1C(=O)CN1CC[C@H](Oc2cccc3cnccc23)C1 [Example 65, (S)-1-(2-((S)-3-(isoquinolin-5-yloxy)pyrrolidin-1-yl)acetyl)pyrrolidine-2-carbonitrile]
0.0076	5.94	27.4	84.9	3930	> 1			N#C[C@@H]1CCCN1C(=O)CN1CC[C@H](Oc2ccc(Cl)c3cccnc23)C1 [Example 81, (S)-1-(2-((S)-3-((5-chloroquinolin-8-yl)oxy)pyrrolidin-1-yl)acetyl)pyrrolidine-2-carbonitrile]
0.001	9.46	> 100	> 100	5400	> 1			COc1ccc2nccc(O[C@H]3CCN(CC(=O)N4CCC[C@H]4C#N)C3)c2c1 [Example 84, (S)-1-(2-((S)-3-((6-methoxyquinolin-4-yl)oxy)pyrrolidin-1-yl)acetyl)pyrrolidine-2-carbonitrile]
0.00068	0.174	7.68	4.75	5670	> 1			COc1ccc2nccc(O[C@H]3CCN(CC(=O)N4CC(F)(F)C[C@H]4C#N)C3)c2c1 [Example 103, (S)-4,4-difluoro-1-(2-((S)-3-((6-methoxyquinolin-4-yl)oxy)pyrrolidin-1-yl)acetyl)pyrrolidine-2-carbonitrile]
0.00114	0.0834	16.2	22.2	3080	> 1			N#C[C@@H]1CC(F)(F)CN1C(=O)CN1CC[C@H](Oc2ccnc3c(C(F)(F)F)cccc23)C1 [Example 104, (S)-4,4-difluoro-1-(2-((S)-3-((8-(trifluoromethyl)quinolin-4-yl)oxy)pyrrolidin-1-yl)acetyl)pyrrolidine-2-carbonitrile]
0.00121	0.0635	11.8	12.5	5230	> 1			N#C[C@@H]1CC(F)(F)CN1C(=O)CN1CC[C@H](Oc2cccc3ncccc23)C1 [Example 105, (S)-4,4-difluoro-1-(2-((S)-3-(quinolin-5-yloxy)pyrrolidin-1-yl)acetyl)pyrrolidine-2-carbonitrile]
